The target of one assay is T1, EGFR (Homo sapiens, UniProt P00533).
T1 construct: The intracellular portion of EGFR started at nucleotide 2189 (corresponding to amino acid 667) and ended at the termination codon; made in house; host or cells: Sf9 insect cells (baculovirus)
The assay can be described thus: EGFR Kinase Assay. It counts as biochemical. The following applies: test concentration of 2 μM; read-out: EGFR percent inhibition. The source says: The EGFR kinase used was a fusion of Glutathione-S-Transferase (GST) and a PCR amplified intracellular portion of EGFR (NM_005228). The intracellular portion of EGFR started at nucleotide 2189 (corresponding to amino acid 667) and ended at the termination codon. The portion was PCR amplified with primers that added the lambda attB sequences to each end, recombined into an entry vector, then into a GST destination vector (as described in Gateway Technologies Manual by Invitrogen Corporation, Carlsbad, Calif.).
The destination vector was recombined in the DH10BAC strain of bacteria to produce a bacmid. The bacmid was transfected into Sf 9 cells and the supernatant containing the baculovirus was collected. The GSTEGFR protein was purified using large cultures of Sf 9 cells infected with stock virus. After an appropriate period of time, the cells were collected and lysed. The GSTEGFR was then purified from the lysate on Glutathione-Sepharose columns (as described by Amersham Biosciences, Buckinghamshire, United Kingdom).
The EGFR substrate was prepared by biotinylating polyGluTyr (128 mg) (Sigma, St. Louis, Mo.) in a 1×PBS buffer incubated together with a 12-fold molar excess of Sulfo-NHS-LC-Biotin on ice for at least 2 hrs. The free biotin was separated from the biotinylated polyGluTyr on a gel filtration column.
A mixture of a 10× kinase buffer (500 mM Tris at pH 8.0, 100 mM Magnesium Chloride and 1 mM Sodium Vanadate), DTT (1 mM final from 500 mM stock), ATP (5 μM final from 10 mM stock), biotinylated polyGluTyr (10 μg/μL stock), γ-^33P ATP (10 μCi/μL stock) and water was added to each well (90 μL/well) of a Streptavidin Flashplate (Perkin Elmer, Wellesley, Mass.).
Test compound in 100% DMSO (2 μL) was added to the appropriate wells. Diluted GSTEGFR (1:300 dilution in 50 mM Tris at pH 8.0 and 0.1% bovine serum albumin) (10 μL) was added to the wells to initiate the reactions.
The plates were incubated at 30° C. for 1 hr with shaking. The reacted contents were removed and the plates were sequentially washed three times with a 1×PBS stop buffer (300 μL without Magnesium and Calcium) and 100 mM EDTA. After the final wash, the same stop buffer (200 μL) was added to the wells. The plates were then sealed and read on the TopCount scintillation counter.
Test compounds were assayed in triplicate at 16 concentrations at half-log dilutions starting at 200 uM. A maximum and minimum signal for the assay was determined on each plate. The percent inhibition of a test compound was calculated according to the formula
For a series of test concentrations, the IC50 was derived by graphing percent inhibition against the log of the concentrations tested for a given compound. For those compounds without an IC50, the percent inhibition results are shown at a test concentration of 2 μM.

For another assay, the target named is T2, VEGF-R2 (Rattus norvegicus, UniProt O08775).
T2 construct: polyhistidine (N)
The assay can be described thus: VEGF-R2 Screening Assay. It counts as biochemical. The following applies: for inhibition at 1 µM: test concentration of 1 μM, read-out: VEGF-R2 percent inhibition. How it is done: (§1) A kinase reaction mixture was prepared containing 50 mM Tris-HCl at pH 8, 10 mM, MgCl20.1 mM […], 1 mM DTT, 10 μM ATP, 0.025 μM biotinylated histone-H1 peptide substrate and 0.2 μCuries per well ^33P-γ-ATP (2000-3000 Ci/mmol). 70 μL of the kinase reaction mixture was dispensed into the well of a Streptavidin FlashPlate.
(§2) Test compound stock in 100% DMSO (1 μL) was added to the wells resulting in a final concentration of 1% DMSO in the reaction with a 100 μL final reaction volume. Each enzyme was diluted in 50 mM Tris-HCl pH=8.0, 0.1% BSA and 30 μL was added to each well to initiate the reaction. The reaction was incubated for one hour at 30° C. At the end of the 1 hr incubation, the reaction was terminated by aspirating the mixture from the plate and washing the wells twice with PBS containing 100 mM EDTA. The biotinylated peptide substrate became immobilized on the Flashplate^198 and the incorporation of ^33P-γ-ATP was measured by reading the plate on a scintillation counter. Inhibition of the enzymatic activity was measured by observing a reduced amount of ^33P-γ-ATP incorporated into the immobilized peptide.
The VEGF-R2 enzyme is a fusion protein containing a polyhistidine tag at the N terminus followed by amino acids 786 to 1343 of the rat VEGF-R2 kinase domain (Accession number U93306). The assay used 150 ng of the N-terminal biotinylated peptide biotin-KHKKLAEGSAYEEV-amide (VEGF-R2) per well.
(§3) The IC50 was derived according to the procedure described in Example 2. For those compounds without an IC50, the percent inhibition results are shown at a test concentration of 1 μM.

The next assay has as its target T3, Aurora-A (Mus musculus, UniProt P97477).
T3 construct: followed by the full length protein encoding the murine Aurora-A; polyhistidine (N); made in house; host or cells: sf9 insect cells
T3 sequence (P97477 1-395): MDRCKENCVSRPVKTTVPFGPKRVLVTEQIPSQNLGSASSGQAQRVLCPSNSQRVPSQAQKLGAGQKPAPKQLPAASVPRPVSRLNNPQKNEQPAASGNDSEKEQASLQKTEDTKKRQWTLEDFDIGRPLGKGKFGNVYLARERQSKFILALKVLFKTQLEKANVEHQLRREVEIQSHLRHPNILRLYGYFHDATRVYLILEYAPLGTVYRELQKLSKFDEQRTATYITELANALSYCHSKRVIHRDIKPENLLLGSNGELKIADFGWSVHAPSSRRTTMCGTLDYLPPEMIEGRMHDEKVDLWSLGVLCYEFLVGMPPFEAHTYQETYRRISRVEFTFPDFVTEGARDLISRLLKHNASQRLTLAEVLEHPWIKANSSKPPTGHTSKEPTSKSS
The assay is described as follows: Aurora-A Screening Assay. The assay is classed as biochemical, murine. The following applies: for inhibition at 1 µM: test concentration of 1 μM, read-out: Aurora-A percent inhibition. How it is done: as §1, §2
Aurora-A is a fusion protein containing a polyhistidine tag at the N terminus followed by the full length protein encoding the murine Aurora-A (Accession number GB BC014711) expressed and purified from sf9 insect cells. The assay used 400 ng of the N-terminal biotinylated peptide biotin-GRTGRRNSI-amide (Aurora-A) per well.
as §3

The target of the next assay is T4, HER-2 (Homo sapiens, UniProt P04626).
T4 construct: the nucleotides encoding amino acids 679 to 1255 of HER-2; purchased Proqinase (Freiburg, Germany)
The assay is described as follows: HER-2 Kinase Assay. The following applies: for inhibition at 1 µM: test concentration of 1 μM, read-out: HER-2 percent inhibition. The assay is classed as biochemical. The protocol:
HER-2 kinase was purified at Proqinase (Freiburg, Germany) from a construct that consisted of a fusion of GST (Glutathione-S-Transferase), HIS6-Thrombin and the nucleotides encoding amino acids 679 to 1255 of HER-2.
A mixture of a 10× kinase reaction buffer (600 mM Hepes at pH 7.5, 30 mM Magnesium Chloride, 0.03 mM Sodium Vanadate and 500 μg/mL PEG 20,000), DTT (1.2 mM final from a 10 mM stock), ATP (1 μM from a 10 mM stock), biotinylated polyGluTyr (1.5 ng/μL final from stock of 1 μg/μL prepared by Upstate Biotechnologies, Lake Placid, N.Y.), Manganese Chloride (3 mM final from a 1 M stock), γ-^33P-ATP (10 μCi/μL stock) and water (70 μL/well) was added to each well of a Streptavidin Flashplate (Cat. #SMP103, NEN, Boston, Mass.).
Test compound stock (1 μL) was added to the appropriate wells. Diluted GSTHER2 kinase (6.7 ng/μL diluted into 50 mM Tris-HCl at pH 8.0 and 0.1% bovine serum albumin) (30 μL) was added (total volume of 200 ng/well) to initiate the reactions.
The reaction plates were incubated at 30° C. for 1 hr. The reaction was terminated by aspiring the reaction mixture from the plate wells and washing the wells three times with a 1×PBS stop buffer (300 μL) and 100 mM EDTA. After the final wash, the same stop buffer (200 μL) was again added to the wells. The plates were then sealed and read on the TopCount scintillation counter.
as §3

Some results are limits rather than exact numbers.

T2 sequence (O08775 786-1343): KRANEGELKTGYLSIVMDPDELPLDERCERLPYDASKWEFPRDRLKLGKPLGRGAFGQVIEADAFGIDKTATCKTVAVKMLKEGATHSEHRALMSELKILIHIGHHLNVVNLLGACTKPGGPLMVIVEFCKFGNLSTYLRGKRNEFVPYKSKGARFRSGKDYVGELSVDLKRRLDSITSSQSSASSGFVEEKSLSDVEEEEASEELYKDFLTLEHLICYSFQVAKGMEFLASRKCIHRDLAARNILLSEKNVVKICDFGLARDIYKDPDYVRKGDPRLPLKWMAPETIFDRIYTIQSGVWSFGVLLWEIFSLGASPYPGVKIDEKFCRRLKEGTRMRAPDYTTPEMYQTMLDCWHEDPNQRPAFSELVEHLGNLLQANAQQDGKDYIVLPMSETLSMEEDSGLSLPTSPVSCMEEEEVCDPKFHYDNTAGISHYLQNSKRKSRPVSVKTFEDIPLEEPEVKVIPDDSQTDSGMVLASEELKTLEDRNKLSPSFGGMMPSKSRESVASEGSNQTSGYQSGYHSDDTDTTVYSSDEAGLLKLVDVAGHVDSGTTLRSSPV
T1 sequence (P00533 669-1210 limits assumed): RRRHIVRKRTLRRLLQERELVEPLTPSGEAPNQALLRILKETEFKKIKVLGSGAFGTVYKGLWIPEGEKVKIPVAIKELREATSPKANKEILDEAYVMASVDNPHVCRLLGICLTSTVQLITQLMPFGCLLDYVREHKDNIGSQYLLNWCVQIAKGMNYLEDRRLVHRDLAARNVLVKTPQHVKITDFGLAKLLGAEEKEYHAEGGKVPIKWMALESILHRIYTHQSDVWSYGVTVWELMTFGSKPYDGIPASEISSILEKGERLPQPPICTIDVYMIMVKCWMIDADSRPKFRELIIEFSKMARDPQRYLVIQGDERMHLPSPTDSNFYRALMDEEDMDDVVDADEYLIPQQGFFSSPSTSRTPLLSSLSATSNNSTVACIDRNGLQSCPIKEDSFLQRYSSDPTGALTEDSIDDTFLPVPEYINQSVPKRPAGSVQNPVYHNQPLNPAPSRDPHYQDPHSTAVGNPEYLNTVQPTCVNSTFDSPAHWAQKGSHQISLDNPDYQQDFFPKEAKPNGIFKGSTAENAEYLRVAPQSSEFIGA
T4 sequence (P04626 679-1255): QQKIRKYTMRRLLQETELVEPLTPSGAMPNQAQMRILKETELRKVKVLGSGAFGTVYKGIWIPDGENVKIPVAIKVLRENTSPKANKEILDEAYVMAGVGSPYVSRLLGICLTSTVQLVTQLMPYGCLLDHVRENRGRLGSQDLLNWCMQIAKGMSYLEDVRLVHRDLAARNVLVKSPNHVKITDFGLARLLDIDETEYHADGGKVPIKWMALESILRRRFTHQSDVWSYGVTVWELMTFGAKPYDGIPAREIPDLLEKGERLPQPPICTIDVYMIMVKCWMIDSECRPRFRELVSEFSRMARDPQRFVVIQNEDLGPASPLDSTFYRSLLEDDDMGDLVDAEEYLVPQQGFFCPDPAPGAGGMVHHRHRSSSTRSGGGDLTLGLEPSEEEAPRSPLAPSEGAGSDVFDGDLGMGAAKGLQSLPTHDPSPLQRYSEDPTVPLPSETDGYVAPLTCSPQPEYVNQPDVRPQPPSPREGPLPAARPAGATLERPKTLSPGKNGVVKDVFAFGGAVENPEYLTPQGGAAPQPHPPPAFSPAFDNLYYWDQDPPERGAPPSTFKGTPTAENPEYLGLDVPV

Take `CN(C(=O)c1sc2ncc(C#N)c3c2c1NC(=O)N3c1c(Cl)ccc2c1OCO2)c1ccc(CN2CCOCC2)cc1` [Cpd 29, 5-(5-chloro-benzo[1,3]dioxol-4-yl)-6-cyano-4-oxo-4,5-dihydro-3H-1-thia-3,5,8-triaza-acenaphthylene-2-carboxylic acid methyl-(4-morpholin-4-ylmethyl-phenyl)-amide]: the inhibition at 2 µM at EGFR was found to be 2%. In addition, the inhibition at 1 µM at VEGF-R2 was 10%; at Aurora-A, 13%; on HER-2 it was 0%.

Consider `N#Cc1cnc2sc(C(=O)Nc3ccncc3)c3c2c1N(c1c(Cl)ccc2c1OCO2)C(=O)N3` [Cpd 40, 5-(5-chloro-benzo[1,3]dioxol-4-yl)-6-cyano-4-oxo-4,5-dihydro-3H-1-thia-3,5,8-triaza-acenaphthylene-2-carboxylic acid pyridin-4-ylamide], for which the inhibition at 2 µM on EGFR amounted to 30%. For the same compound, the inhibition at 1 µM on VEGF-R2 is 9%; on Aurora-A, 15%; on HER-2 it was 0%.

For `CN(C)c1cc(NC(=O)c2sc3ncc(C#N)c4c3c2NC(=O)N4c2c(Cl)ccc3c2OCO3)ccc1CN1CCOCC1` [Cpd 27, 5-(5-chloro-benzo[1,3]dioxol-4-yl)-6-cyano-4-oxo-4,5-dihydro-3H-1-thia-3,5,8-triaza-acenaphthylene-2-carboxylic acid (3-dimethylamino-4-morpholin-4-ylmethyl-phenyl)-amide], at EGFR, the inhibition at 2 µM worked out at 34%. Besides, the inhibition at 1 µM came to 7% on VEGF-R2, 16% on Aurora-A and 0% on HER-2.

Take `CN1CCCCC1COc1ccc(NC(=O)c2sc3ncc(C#N)c4c3c2NC(=O)N4c2c(Cl)ccc3c2OCO3)cc1` (stereo not shown) [Cpd 32, 5-(5-chloro-benzo[1,3]dioxol-4-yl)-6-cyano-4-oxo-4,5-dihydro-3H-1-thia-3,5,8-triaza-acenaphthylene-2-carboxylic acid [4-(1-methyl-piperidin-2-ylmethoxy)-phenyl]-amide]: the inhibition at 2 µM on EGFR worked out at 35%. Moreover, the inhibition at 1 µM was 1% at VEGF-R2, 13% on Aurora-A and 22% at HER-2.

`CC(C)(CO)NC(=O)c1sc2ncc(C#N)c3c2c1NC(=O)N3c1c(Cl)ccc2c1OCO2` [Cpd 38, 5-(5-chloro-benzo[1,3]dioxol-4-yl)-6-cyano-4-oxo-4,5-dihydro-3H-1-thia-3,5,8-triaza-acenaphthylene-2-carboxylic acid (2-hydroxy-1,1-dimethyl-ethyl)-amide]: the inhibition at 2 µM on EGFR was 13%. The inhibition at 1 µM at VEGF-R2 was 2%; on Aurora-A it was 4%; on HER-2, 0%.

Consider `N#Cc1cnc2sc(C(=O)Nc3ccc(NCCCN4CCOCC4)nc3)c3c2c1N(c1c(Cl)ccc2c1OCO2)C(=O)N3` [Cpd 30, 5-(5-chloro-benzo[1,3]dioxol-4-yl)-6-cyano-4-oxo-4,5-dihydro-3H-1-thia-3,5,8-triaza-acenaphthylene-2-carboxylic acid [6-(3-morpholin-4-yl-propylamino)-pyridin-3-yl]-amide], for which, on EGFR, the inhibition at 2 µM stood at 11%. The inhibition at 1 µM was found to be 12% at VEGF-R2, 22% at Aurora-A and 35% at HER-2.

Consider `CCOC(=O)c1sc2nc(Cl)c(C#N)c3c2c1NC(=O)N3c1ccc(Oc2ccccc2)cc1` [Cpd 53, 7-chloro-6-cyano-4-oxo-5-(4-phenoxy-phenyl)-4,5-dihydro-3H-1-thia-3,5,8-triaza-acenaphthylene-2-carboxylic acid ethyl ester], for which the inhibition at 2 µM on EGFR amounted to 2%. Also, the IC50 on VEGF-R2, on Aurora-A and at HER-2 was > 100 µM throughout.

Consider `N#Cc1cnc2sc(C(=O)N3CCCC(F)C3)c3c2c1N(c1c(Cl)ccc2c1OCO2)C(=O)N3` (stereo not shown) [Cpd 43, 5-(5-chloro-benzo[1,3]dioxol-4-yl)-2-(3-fluoro-piperidine-1-carbonyl)-4-oxo-4,5-dihydro-3H-1-thia-3,5,8-triaza-acenaphthylene-6-carbonitrile], for which the values for the IC50 against VEGF-R2, against Aurora-A and at HER-2 were ~100 µM, > 10 µM and 10.6 µM, respectively.

For `N#Cc1cnc2sc(C(=O)Nc3ccc(CN4CCCC(F)C4)cc3)c3c2c1N(c1c(Cl)ccc2c1OCO2)C(=O)N3` (stereo not shown) [Cpd 44, 5-(5-chloro-benzo[1,3]dioxol-4-yl)-6-cyano-4-oxo-4,5-dihydro-3H-1-thia-3,5,8-triaza-acenaphthylene-2-carboxylic acid [4-(3-fluoro-piperidin-1-ylmethyl)-phenyl]-amide], the half-inhibitory concentration (IC50) was > 10 µM at VEGF-R2, 1.1 µM at Aurora-A and 1.1 µM against HER-2.
